Where no end group is shown, it is not given here.
What was measured:
[1] = tested on: adhesion factors (Sdf-1a, Kitl, Angpt1, IL7, Vcam1, Spp1) for hematopoietic stem cells; assay: Expression level of adhesion factors for hematopoietic stem cells in bone marrow of normal mice (real-time quantitative PCR); assay type: in vivo, C57BL/6 mice; conditions: normal mouse, 50 μg/kg intravenous injection to tail, bone marrow harvested after 60 minutes; p<0.05
Description: Osteopep1 used herein was produced by PEPTRON. For in vitro experiment, 0 nM Osteopep1 and 10 nM Osteopep1 were diluted in respective media and then injected. Further, for in vivo experiment, three mice per group, fifteen mice in total, were anesthetized with a mixed solution of 100 mg/kg of ketamine and 10 mg/kg of xylazine. Further, the each mouse was administered with 50 μg/kg of Osteopep1 and 100 μl of PBS (Gibco) by intravenous injection to its tail.
(§1) In order to measure expression levels of adhesion factors (Sdf-1a, Kitl, Angpt1, IL7, Vcam1, Spp1) for hematopoietic stem cells present in osteoblasts, a real-time quantitative PCR was used.
(§2) An RNeasy Plus mini kit (Qiagen, Korea, Ltd.) was used to extract total RNA from a cell eluent and bone marrow cells. A kit produced by Clontech (Mountain View, Calif.) was used to synthesize cDNA from 5 μg of the total RNA. Further, a Corbett research RG-6000 real-time PCR device was used to perform a real-time quantitative PCR repeatedly for 40 cycles under a condition of 95° C. for 10 minutes; 95° C. for 10 seconds; 58° C. for 15 seconds; and 72° C. for 20 seconds per cycle. […]

[2] = tested on: bone marrow hematopoietic progenitor cells in blood; assay: Colony-forming unit (CFU) assay: number of bone marrow hematopoietic progenitor cells in blood of normal mice; assay type: in vivo, C57BL/6 mice; conditions: normal mouse, 50 μg/kg intravenous injection to tail, blood collected after 60 minutes; p<0.05
Description: In order to measure the number of bone marrow hematopoietic progenitor cells in blood of a mouse, CFU assays were conducted. A mouse was anesthetized, and then, 500 μl to 700 μl of blood was collected from the heart into a heparin tube. Then, the collected blood was put into an ammonium chloride solution (Stem Cell Technologies, Inc. 1:10) and then placed in ice for 15 minutes, and red blood cells were removed. The resultant solution was shaken every 2 to 3 minutes to remove red blood cells well, and then, centrifuged for 7 minutes at 1000 rpm. The supernatant was removed, and the resultant solution was washed with IMDM (Gibco) supplied with 2% fetal bovine serum (FBS) (Gibco). The washed cells (3×10^5 per mouse) were divided into three 35 mm dishes (1×10^5 per dish) respectively including methylcellulose-based media (Methocult, Stem cell), and then, cultured for 2 weeks. Then, the number of colonies in the flask was counted. In order to check whether mobilization of bone marrow hematopoietic progenitor cells to blood is induced by a decrease in expression level of the adhesion factors caused by administration of Osteopep1 of the present disclosure, a mouse was administered with 50 μg/kg of Osteopep1 by intravenous injection to its tail, and after 60 minutes, blood was collected from the heart. Then, a CFU (Colony-forming unit) assay was conducted thereto.

[3] = tested on: bone marrow hematopoietic stem cells (Lineage, Sca-1, c-kit); assay: Flow cytometry (FACs): number of bone marrow hematopoietic stem cells in bone marrow of normal mice; assay type: in vivo, C57BL/6 mice; conditions: 50 μg/kg vs PBS, bone marrow harvested after 60 minutes, p<0.05
Description: In order to find out any change in the number of bone marrow hematopoietic stem cells present in bone marrow of mice, Osteopep1 and PBS were injected to normal mice, respectively. After 60 minutes, bone marrow was harvested, and FACs was conducted to the harvested bone marrow by using three kinds of antibodies including Lineage, Sca-1, and c-kit as markers of bone marrow hematopoietic stem cells.
For analyzing bone marrow hematopoietic stem cells, red blood cells were removed from bone marrow, which was harvested from the tibias and the femurs of a 4-week- to 6-week-old C57BL/6 mouse, with an ammonium chloride solution (Stem Cell Technologies, Inc. 1:4) and then, the bone marrow was washed with a PBS (Gibco) solution including 10% fetal bovine serum (FBS) (Gibco) and 1% sodium azide (Sigma-Aldrich) and centrifuged for 10 minutes at 300×g. The hematopoietic cells included in the bone marrow were removed with MACs beads (Miltenyi Biotec) by using a biotinylated lineage antibody (Miltenyi Biotec), and the remaining cells were reacted at 4° C. for 30 minutes by using Sca-1-PECY7, c-kit-APC, CD150-PE, and CD48-FITC antibodies (BD science) and then analyzed with a flow cytometer LSRII (BD science).
Firstly, normal mice were divided into two groups each including 3 mice, and the respective groups were administered with 50 μg/kg of Osteopep1 and 100 μl of PBS (Gibco). […]

[4] = tested on: adhesion factors for hematopoietic stem cells present in osteoblasts; assay: Expression level of adhesion factors in osteoblasts differentiated from BM-MSC (real-time quantitative PCR); assay type: cell-based, C57BL/6 mouse; conditions: osteoblasts treated with 0 nM and 10 nM for three days, compared with untreated Control; p<0.05
Excerpt: After a 4-week- to 6-week-old C57BL/6 mouse was anesthetized and sacrificed, the tibias and the femurs were removed. Bone marrow was harvested from the tibias and the femurs, and a single cell suspension was obtained by using a 40 μm cell strainer (Becton-Dickinson LAβware, Franklin Lakes, N.J.). About 10^7 cells were divided in a 75-cm^2 flask including Mesenchymal Stem Cell Stimulatory Supplements (Stem Cell Technologies, Inc.) added with antibiotics and MesenCult™ MSC Basal medium. After being cultured for one week, the cells were cultured for three weeks in StemXVivo Osteogenic/Adipogenic Base Media (R&D systems) added with StemXVivo Osteogenic supplement (20×) and penicillin-streptomycin (100×) for differentiation into osteoblasts. The culture media were replaced every 2 to 3 days.
as §1
as §2, with “A kit produced by Clontech (Mountain View, Calif.) was used to synthesize cDNA from 5 μg of the total RNA.” left out

[5] = tested on: adhesion factors (Sdf-1a, Kitl, Angpt1, IL7, Vcam1, Spp1) for hematopoietic stem cells; assay: Expression of adhesion factors for bone marrow hematopoietic stem cells in osteoporosis model (real-time quantitative PCR); assay type: in vivo, mice; conditions: osteoporosis (ovariectomy) models, 50 μg/kg intraperitoneally every 12 hours for 3 weeks; p<0.05
Description: (§3) After 1 week, 50 μg/kg of Osteopep1 (PEPTRON) and 100 μl of PBS (Gibco) were intraperitoneally administered every 12 hours twice per day for 3 weeks.
as §1
An RNeasy Plus mini kit (Qiagen, Korea, Ltd.) was used to extract total RNA from a cell eluent and bone marrow cells. A kit produced by Clontech (Mountain View, Calif.) was used to synthesize cDNA from 5 μg of the total RNA. Further, a Corbett research RG-6000 real-time PCR device was used to perform a real-time quantitative PCR repeatedly for 40 cycles under a condition of 95° C. for 10 minutes; 95° C. for 10 seconds; 58° C. for 15 seconds; and 72° C. for 20 seconds per cycle.
After 1 week, 50 μg/kg of Osteopep1 (PEPTRON) and 100 μl of PBS (Gibco) were intraperitoneally administered every 12 hours twice per day for 3 weeks. […] On the 22nd day, the femurs was separated from the mouse and refrigerated in 80% ethanol. Then, a bone density and a trabecular thickness were measured by micro CT. […]

[6] = tested on: bone marrow hematopoietic progenitor cells in blood; assay: CFU assay: mobilization of bone marrow hematopoietic progenitor cells to blood in osteoporosis model; assay type: in vivo, mice; conditions: osteoporosis (ovariectomy) models, 50 μg/kg intraperitoneally every 12 hours for 3 weeks; p<0.05
Description: After 1 week, 50 μg/kg of Osteopep1 (PEPTRON) and 100 μl of PBS (Gibco) were intraperitoneally administered every 12 hours twice per day for 3 weeks. […] In order to measure the number of bone marrow hematopoietic progenitor cells in blood of a mouse, CFU assays were conducted. A mouse was anesthetized, and then, 500 μl to 700 μl of blood was collected from the heart into a heparin tube. Then, the collected blood was put into an ammonium chloride solution (Stem Cell Technologies, Inc. 1:10) and then placed in ice for 15 minutes, and red blood cells were removed. The resultant solution was shaken every 2 to 3 minutes to remove red blood cells well, and then, centrifuged for 7 minutes at 1000 rpm. The supernatant was removed, and the resultant solution was washed with IMDM (Gibco) supplied with 2% fetal bovine serum (FBS) (Gibco). The washed cells (3×10^5 per mouse) were divided into three 35 mm dishes (1×10^5 per dish) respectively including methylcellulose-based media (Methocult, Stem cell), and then, cultured for 2 weeks. Then, the number of colonies in the flask was counted. In order to find out effects of administration of Osteopep1 of the present disclosure on bone marrow hematopoietic progenitor cells mobilized to blood in an osteoporosis model, an experiment was conducted in the same manner as the method of Example 1-4.

[7] = tested on: bone marrow hematopoietic stem cells; assay: Mobilization of bone marrow hematopoietic stem cells to blood in osteoporosis model, by markers of bone marrow hematopoietic stem cells; assay type: in vivo, mice; conditions: osteoporosis (ovariectomy) model, 50 μg/kg intraperitoneally every 12 hours for 3 weeks; p<0.05
Description: FIG. 9 is a diagram illustrating a mobilization level of bone marrow hematopoietic stem cells to blood when Osteopep1 is administered to an osteoporosis model, by using a marker of a bone marrow hematopoietic stem cell.
as §3
In order to check whether mobilization of bone marrow hematopoietic progenitor cells to blood in an osteoporosis model is induced by Osteopep1 of the present disclosure, the following experiment was conducted.

bone (femurs) = assay: Micro CT of femurs: bone density and trabecular thickness in osteoporosis (ovariectomy) model and control mice; assay type: in vivo; conditions: osteoporosis model mouse, 50 μg/kg intraperitoneally twice per day for 3 weeks, compared with PBS; micro CT on 22nd day
Description: After 1 week, 50 μg/kg of Osteopep1 (PEPTRON) and 100 μl of PBS (Gibco) were intraperitoneally administered every 12 hours twice per day for 3 weeks. […] The femurs was separated from the mouse and refrigerated in 80% ethanol. Then, for micro CT scanning, a tissue having a thickness of 40 μm was measured with a micro CT scanner (Inveon preclinical CT, Siemens Healthcare, Hoffman Estates, Ill.) under conditions including an exposure time of 600 msec, photon energy of 70 keV, and a current of 400 μA. In order to measure a bone density (bone volume/total volume) and a trabecular thickness, pieces each having a volume of 2.5×0.5×0 5 mm^3 from the same site of each group were measured with Siemens Inveon Software. […] After 1 week, 50 μg/kg of Osteopep1 (PEPTRON) and 100 μl of PBS (Gibco) were intraperitoneally administered every 12 hours twice per day for 3 weeks. […] On the 22nd day, the femurs was separated from the mouse and refrigerated in 80% ethanol. Then, a bone density and a trabecular thickness were measured by micro CT.

For DNPGEDAPAEDMARY [Osteopep1], the “expression levels of the main adhesion factors Sdf-1a, Kitl, Angpt1, and Spp1” value [1] was “decreased”, the “mobilization of bone marrow hematopoietic progenitor cells to blood (CFU assay)” value [2] was “increased” and the “bone marrow hematopoietic stem cells marked by Lineage, Sca-1, and c-kit in bone marrow (FACs)” value [3] was “decreased”. For the same sequence, the “expression levels of Sdf-1a, Kitl, and Angpt1 in osteoblasts” value [4] was “concentration-dependently decreased”, the “expression levels of the adhesion factors (Sdf-1a, Kitl, Angpt1, IL7, Vcam1, Spp1) for hematopoietic stem cells” value [5] was “decreased” and the “mobilization of bone marrow hematopoietic progenitor cells to blood (CFU assay)” value [6] was “increased”. For the same sequence, the “mobilized amounts of the markers of bone marrow hematopoietic stem cells” value [7] was “increased”, the “bone density percentage (BV/TV, %)” value (bone (femurs)) was “increased” and the “trabecular thickness (mm)” value (bone (femurs)) was “increased”.
